Experimental data as given in patent US20040138145A1, “Application of intestinal biliary acid reuptake inhibitors for the prevention and treatment of alzheimer's disease” (Aventis Pharma S.A., priority 2002, published 2004).

Tests used:
Aβ peptide = assay: Cerebral Aβ peptide levels (soluble and total brain fractions) in Tg53 transgenic mice, immunoelectrochemoluminescence assay; type: in vivo, mouse; settings: for levels of total Aβ / levels of total Aβ reduced compared with control group: Test 3; for levels of total Aβ: control 108.1±8.5
plasma cholesterol = assay: Plasma cholesterol level in Tg53 transgenic mice after treatment in feed; type: in vivo, mouse
Protocol: The compound A in powdered form was mixed at the dose of 0.01% (weight/weight) with standard feed in powdered form.
Transgenic mice Tg53 (overexpressing the human APP transgene carrying the “Swedish” and “London” mutations, (2002 Wirths, et al. (2002). Brain Pathol. 12, 275-286), 8-10 week old females, were treated for 3 weeks. The mice were housed in an individual cage with drink being available ad libitum. Every day, 6 grams of powdered food (supplemented or otherwise with compound A) were distributed in each cage. Two groups of 11 to 12 animals (control regimen or regimen supplemented with compound A) were used. At the end of the treatment, a blood sample was collected and the plasma cholesterol level was determined using an automated device for biological analysis.

With `CCCC[C@]1(CC)CS(=O)(=O)c2ccc(N(C)C)cc2[C@@H](c2cccc(NC(=O)CCCCNC[C@H](O)[C@@H](O)[C@H](O)[C@H](O)CO)c2)[C@H]1O` [compound A] the “decrease in the cerebral level of soluble Aβ peptide compared to control regimen group” value (Aβ peptide; Test 1, Tg53 females 8-10 weeks old, 0.01% (w/w) in feed, 3 weeks, p=0.0103) was 18%, the “cerebral levels of total peptide Aβ” value (Aβ peptide; Test 2, female transgenic mice 15.5 weeks old at end of treatment, 0.01% in feed, n=8, control 364.2±40.9) was 196.3±17.8 ng/g of tissue and the “reduction in the cerebral level of soluble Aβ peptide compared with control regime group” value (Aβ peptide; Test 2, female transgenic mice 15.5 weeks old at end of treatment, 0.01% in feed, p=0.0001) was 40%. The “cerebral levels of total peptide Aβ reduced compared with control regime group” value (Aβ peptide; Test 2, female transgenic mice 15.5 weeks old at end of treatment, 0.01% in feed, p=0.0017) was 46%, the “levels of total Aβ” value (Aβ peptide; 0.0001% in feed, n=8) was 85.4±4.1 ng/g of tissue and the “levels of total Aβ reduced compared with control group” value (shortened to “levels of total Aβ reduced”) (Aβ peptide; 0.0001% in feed, p=0.04) was 21%. The “levels of total Aβ” value (Aβ peptide; 0.001% in feed, n=10) was 86.5±5.9 ng/g of tissue, the “levels of total Aβ reduced” value (Aβ peptide; 0.001% in feed, p=0.050) was 20% and the “levels of total Aβ” value (Aβ peptide; 0.01% in feed, n=10) was 90.5±6.9 ng/g of tissue. For the same compound, the “levels of total Aβ reduced” value (Aβ peptide; 0.01% in feed, p=0.123, ns) was 16%, the plasma cholesterol level (plasma cholesterol; Test 1, Tg53 females 8-10 weeks old, 0.01% (w/w) in feed, 3 weeks, n=11, control 0.72±0.023) was 0.62 ± 0.030 g/L and the “plasma cholesterol level reduced compared to control regimen group” value (plasma cholesterol; Test 1, Tg53 females 8-10 weeks old, 0.01% (w/w) in feed, 3 weeks, p=0.0154) was 14%. For the same compound, the plasma cholesterol level (plasma cholesterol; Test 2, female transgenic mice 15.5 weeks old at end of treatment, 0.01% in feed, n=8, control 0.85±0.03) was 0.70 ± 0.03 g/L and the “plasma cholesterol level reduced compared with control regime group” value (plasma cholesterol; Test 2, female transgenic mice 15.5 weeks old at end of treatment, 0.01% in feed, p=0.0037) was 18%.
